These results are taken from PubChem BioAssay AID850 (SRMLSC, 2007).

Assay [1] relates to Saccharomyces cerevisiae growth inhibition, permissive control. Nature of the assay: yeast lifespan-shortening chemical project counter-assay, dose-response inhibition of growth under permissive conditions (AID 850).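 Note: growth read as optical density after one day of incubation.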
Assay in assay [2]: as above
The note with it: Saccharomyces cerevisiae growth inhibition, permissive control, measured here: maximum growth inhibition, stronger effect = higher value.

Calls of active or inactive are those of the source. The rule behind the calls is not given here. Where only a bound is given, the exact number is not on record here.

For orientation: IC50 means the concentration that gives 50% inhibition. One may read the inhibition as the change of the read-out against control, counted positive when it falls. As for `c1ccc(-c2nc3nonc3nc2-c2ccccc2)cc1`, the IC50 in assay [1] was > 100 µM (inactive). Moreover, the inhibition in assay [2] (at 1.563 µM) was -1.92%.
Take `Cc1nc(Cl)c2oc3ccccc3c2n1`: the IC50 in assay [1] is > 100 µM (inactive). Besides, the inhibition in assay [2] (at 50 µM) was 15.8%.
In the case of `O=C(Nc1nnc(-c2ccc(F)cc2)o1)c1cc(Cl)sc1Cl`, in assay [1], the IC50 is 36.8 µM. Further, the inhibition in assay [2] (at 50 µM) came out at 81.8%.
For `CC1(C)CC(=NOC(=O)c2ccccc2)CC(C)(C)N1O` the same measures were 14 µM and 98.6%.
For `CCCCCCc1ccc(-c2ncc(N)cn2)cc1`, the IC50 in assay [1] was 22.9 µM. Further, the inhibition in assay [2] (at 50 µM) came out at 99.2%.
For the compound `CCC1C(=O)N=C(SCC(=O)Nc2ccccc2)NC1=O` (stereo unspecified), the IC50 in assay [1] was 46.5 µM. Moreover, in assay [2] (at 50 µM), the inhibition is 52.5%.
With `COC(=O)Cn1c2ccc(C)cc2c2nc(C)sc21`, the IC50 in assay [1] is > 100 µM (inactive). The inhibition in assay [2] (at 50 µM) came to 16%.
Regarding `COc1ccc2c(c1)S/C(=C\C(=O)c1ccncc1)N2C`, the IC50 in assay [1] is 6.24 µM. Moreover, the inhibition in assay [2] (at 50 µM) came out at 92.6%.
For `Nc1nonc1C(=O)NCCN=Cc1cc(Cc2ccccc2)cc(Br)c1O` the same measures were > 100 µM (inactive) and 22.4%.
For `COc1ccc(NCc2nc3ccccc3n2CCOc2ccc(C)cc2)cc1` the same measures were 42.2 µM and 52.7%.
As for `COc1ccc(-c2nncnn2)cc1`, in assay [1], the IC50 is 7.1 µM. For the same compound, in assay [2] (at 50 µM), the inhibition worked out at 99.8%.
As to `CCOc1ccccc1C1CC(c2ccc(Br)cc2)Nc2nc(N)nn21` (stereo unspecified), the IC50 in assay [1] was > 100 µM (inactive). Further, the inhibition in assay [2] (at 0.781 µM) worked out at 10.2%.
For `Cc1[nH]n(-c2ccccc2)c(=O)c1/C=N/Nc1nncc(-c2ccccc2)n1`, in assay [1], the IC50 was 20.7 µM. Further, the inhibition in assay [2] (at 50 µM) was 98.7%.
Regarding `Cc1ccc(/C(N)=N/OC(=O)c2ccc(C)cc2Cl)cc1`, the half-inhibitory concentration (IC50) in assay [1] is 8.59 µM. Also, the inhibition in assay [2] (at 50 µM) was 98.4%.
`O=[N+]([O-])c1ccc(O)c(/C=N/Nc2ccccn2)c1`: the IC50 in assay [1] was > 100 µM (inactive). Further, the inhibition in assay [2] (at 0.781 µM) was 16.1%.
As for `O=C1CSC(=S)N1c1cccnc1`, in assay [1], the IC50 was > 100 µM (inactive). Further, in assay [2] (at 50 µM), the inhibition was 14.8%.
The matching figures for `c1ccc2nc3c(nc2c1)[nH]c1ccccc13`: > 100 µM (inactive) and 19.1%.
Take `CC1CCCCN1S(=O)(=O)c1coc(C(N)=O)c1` (stereo unspecified): the IC50 in assay [1] was > 100 µM (inactive). Also, the inhibition in assay [2] (at 3.125 µM) turned out to be 3.72%.
Turning to `O=C1c2ccccc2C(=O)N1Cc1ccco1`, the IC50 in assay [1] is > 100 µM (inactive). Further, the inhibition in assay [2] (at 25 µM) came out at 8.88%.
Take `CCOCCCNC(=O)c1ccc(Br)cc1`: the IC50 in assay [1] is > 100 µM (inactive). The inhibition in assay [2] (at 1.563 µM) came out at 27.6%.
For the compound `c1ccc2nc3ccccc3nc2c1`, the IC50 in assay [1] is 44.8 µM. Also, the inhibition in assay [2] (at 50 µM) turned out to be 55.6%.
The matching figures for `Oc1ccc(COCc2ccccc2)c2cccnc12`: 6.07 µM and 99.4%.
Turning to `CNC(=O)c1cc2c(ccc3ccccc32)oc1=N`, the IC50 in assay [1] is 23.5 µM. The inhibition in assay [2] (at 50 µM) amounted to 74.8%.
For `COc1ccc(-c2cc3nc(C)cc(N4CC(C)CC(C)C4)n3n2)cc1` (stereo unspecified) the same measures were 50.7 µM and 48.3%.
With `C(=N\c1ncnc2sccc12)/NOCc1ccccc1`, in assay [1], the IC50 is 7.68 µM. Further, the inhibition in assay [2] (at 50 µM) amounted to 98.6%.
On to `O=[N+]([O-])c1ccccc1-c1cc(-c2cc(Cl)ccc2O)n[nH]1`, for which the IC50 in assay [1] is > 100 µM (inactive). The inhibition in assay [2] (at 12.5 µM) worked out at 16.3%.
Regarding `CCOc1cc(/C=N/Nc2ccccc2Cl)ccc1OCC(=O)O`, the IC50 in assay [1] is 9.2 µM. For the same compound, the inhibition in assay [2] (at 50 µM) is 99%.
Regarding `Cc1cc(C)cc(N=Cc2ccc([N+](=O)[O-])s2)c1`, the IC50 in assay [1] is 12.3 µM. For the same compound, the inhibition in assay [2] (at 50 µM) is 100%.
Take `COc1ccc(-c2nnc3sc(C(C)N4C(=O)c5ccccc5C4=O)nn23)cc1` (stereo unspecified): the IC50 in assay [1] is > 100 µM (inactive). Besides, the inhibition in assay [2] (at 6.25 µM) is 14%.
For the compound `Cc1ccc(CNC(=O)c2ccc(Cn3nc(C)c(Cl)c3C)o2)cc1`, the IC50 in assay [1] is 17.2 µM. The inhibition in assay [2] (at 50 µM) was 99.8%.
`CN(C)CCNC=C(C(=O)Nc1ccc(Cl)cc1Cl)C(=O)Nc1ccc(Cl)cc1Cl`: the IC50 in assay [1] was 18.6 µM. In addition, in assay [2] (at 25 µM), the inhibition amounted to 101%.
Consider `Cc1cccc(OCCCCc2c(C)n[nH]c2C)c1C`, for which the IC50 in assay [1] was 32 µM. Besides, in assay [2] (at 50 µM), the inhibition came out at 76.5%.
Consider `CCn1ncc(C2=NOC(C(=O)Nc3c(C)n(C)n(-c4ccccc4)c3=O)C2)c1C` (stereo unspecified), for which the IC50 in assay [1] is > 100 µM (inactive). Moreover, the inhibition in assay [2] (at 0.195 µM) turned out to be 6.76%.
As to `O=c1[nH][nH]cc1C=Nc1ccccc1O`, the IC50 in assay [1] was > 100 µM (inactive). In addition, the inhibition in assay [2] (at 1.563 µM) is 12.5%.
As to `CC1(CCc2ccccc2)NC(=S)N(c2ccc(Cl)cc2)N1` (stereo unspecified), the IC50 in assay [1] was 20.1 µM. For the same compound, the inhibition in assay [2] (at 50 µM) worked out at 99.6%.
For the compound `Cc1cc([N+](=O)[O-])ccc1-c1ccc(C2Nc3ccccc3C(=O)N2O)o1` (stereo unspecified), the IC50 in assay [1] is > 100 µM (inactive). In assay [2] (at 0.781 µM), the inhibition was 3.97%.
In the case of `C(=C\c1nc(N2CCCCCC2)c2ccccc2n1)/c1ccccc1`, the IC50 in assay [1] is 39.2 µM. The inhibition in assay [2] (at 50 µM) turned out to be 78.2%.
Regarding `COc1ccc(C(=O)C(C)(C)NO)cc1`, the 50% inhibitory concentration (IC50) in assay [1] is 46.8 µM. Moreover, the inhibition in assay [2] (at 50 µM) is 50.7%.
The matching figures for `Cc1cccc(OCCN2CSC(=S)N(C)C2)c1`: 10.6 µM and 87.3%.
Consider `CCOC(=O)CNC(=O)CSc1nnc(-c2ccco2)n1Cc1ccco1`, for which the IC50 in assay [1] was > 100 µM (inactive). Further, the inhibition in assay [2] (at 0.781 µM) was 14.2%.
As to `Oc1c(Br)cc(Br)cc1/C=N/c1nc2c(s1)CCCC2`, the IC50 in assay [1] was 5.27 µM. Besides, in assay [2] (at 50 µM), the inhibition came to 98.5%.
The matching figures for `Cc1c(Cl)cccc1N=Cc1ccc([N+](=O)[O-])s1`: > 100 µM (inactive) and 9.36%.
Regarding `CCSc1nnc(NC(=O)c2ccccn2)s1`, the IC50 in assay [1] was 12.7 µM. In assay [2] (at 50 µM), the inhibition amounted to 97.8%.
In the case of `O=C1OCC(CO)(CO)N=C1NNc1cc(Cl)ccc1Cl`, the IC50 in assay [1] is 11.4 µM. Also, the inhibition in assay [2] (at 50 µM) worked out at 99.2%.
`Cc1cccc(N=Nc2ccc(O)c3ncccc23)c1`: in assay [1], the IC50 is > 100 µM (inactive). In addition, the inhibition in assay [2] (at 50 µM) amounted to 27.9%.
On to `COc1ccc(Nc2cnn(-c3nc4ccccc4s3)c(=O)c2Cl)cc1`, for which, in assay [1], the IC50 is 44.2 µM. In assay [2] (at 50 µM), the inhibition came to 60.8%.
Consider `COc1ccc(CN2CN(C(C)C)CSC2=S)cc1`, for which the IC50 in assay [1] is > 100 µM (inactive). Further, the inhibition in assay [2] (at 50 µM) was determined as 26.3%.
With `CC1(C)Cc2c(C#N)c(N)sc(=S)c2CO1`, the IC50 in assay [1] was > 100 µM (inactive). The inhibition in assay [2] (at 12.5 µM) was 23.1%.
On to `Cn1c(/C=C/c2ccc([N+](=O)[O-])o2)nc2ccccc2c1=O`, for which the IC50 in assay [1] is 51.4 µM. The inhibition in assay [2] (at 50 µM) worked out at 47.5%.
The matching figures for `CC1CCN(c2nc(/C=C/c3ccccc3)nc3ccccc23)CC1`: 22.2 µM and 100%.
The matching figures for `c1ccc(N(c2ccccc2)c2nc(-n3ccnc3)nc(-n3ccnc3)n2)cc1`: 37.6 µM and 62.1%.
As for `Cc1csc(NC(=O)Cc2coc3cc(C)c(C(C)C)cc23)n1`, in assay [1], the IC50 was > 100 µM (inactive). The inhibition in assay [2] (at 3.125 µM) was determined as 10.1%.
With `Cc1ccccc1C(=O)NNC(=S)NC(=O)COc1ccccc1`, the IC50 in assay [1] is 26.5 µM. Moreover, the inhibition in assay [2] (at 50 µM) worked out at 73.9%.
